Patent US11739161B2, “Methods for treating and diagnosing prostate cancer” (Tufts Medical Center, Inc., priority 2017, dated 2023)

Tests used:
Assay type in all cases: cell-based, human
[1] = tested on: DU145 cells; assay: RNASE4-induced cell proliferation (MTT assay)
Protocol: (§1) FIGS. 10A-E. RNASE4 induces prostate cancer cell proliferation and phosphorylation of AKT and S6. (A and B) Exogenous RNASE4 (1 μg/ml) stimulates cell proliferation (A) and cell cycle progression (B) of DU145 cells cultured in the presence of 2% FBS. Cell numbers were determined by MTT assay. Cell cycle status was determined by flow cytometry after 24 hour incubation with RNASE4. (C) Time course of AKT and S6 phosphorylation of serum-starved DU145 cells by RNASE4 (1 μg/ml). Left panels, immunoblots; right panels, quantification of p-AKT and p-S6 normalized to total AKT and S6 by Image J analysis. […] Cells were pre-incubated with the inhibitors at the indicated concentrations for 1 hour prior to be stimulated by 1 μg/ml of RNASE4 for 5 minutes. Top panels, immunoblots; bottom panels, Image J quantification of p-AKT and p-S6 normalized to total AKT and S6. (E) Effect of AKT inhibitor MK-2206, PI3K inhibitors Wortmannin and LY294002, and mTOR inhibitor Rapamycin on RNASE4-induced cell proliferation. DU145 cells were serum-starved overnight, incubated with the inhibitors for 1 hour, and then treated with RNASE4 (1 μg/ml) for three days. Cell numbers were determined by MTT assay. Data shown are from a representative experiments in triplicates of 3 independent repeats. Error bars indicate SEM. **P≤0.01, by unpaired two-tailed Student's t test.
FIGS. 12A-F. RNASE4 induces AXL phosphorylation. (A) Human phospho-receptor tyrosine kinase (RTK) antibody array analysis. Serum-starved DU145 cells were treated with or without 1 μg/ml of RNASE4 for 5 minutes. […] Cell lysates were analyzed by antibodies against total AXL and phospho-AXL, with β-actin as the loading control. Left panels, immunoblots; right panel, Image J quantification of p-AXL normalized to total AXL. […] Left panels, immunoblots; right panel, quantification. […] Cell numbers were determined by MTT assay. […] Cell lysates were analyzed for AKT and P6 phosphorylation by immunoblotting. Top panels, immunoblots; bottom panels, quantification of phospho-AKT and phospho-S6 by Image J analyses normalized to total AKT and P6, respectively. […]

[2] = tested on: AKT and S6 phosphorylation in DU145 cells; assay: RNASE4-induced phosphorylation of AKT and S6 (immunoblot); settings: then 1 μg/ml RNASE4 5 minutes
Protocol: as §1
(§2) FIGS. 12A-F. RNASE4 induces AXL phosphorylation. (A) Human phospho-receptor tyrosine kinase (RTK) antibody array analysis. Serum-starved DU145 cells were treated with or without 1 μg/ml of RNASE4 for 5 minutes. A total of 1.5 mg cell lysate protein was blotted on each array membrane. […] (B) Immunoblot analysis of RNASE4-stimulated AXL phosphorylation. DU145 cells were serum-starved overnight and treated with 1 μg/ml of RNASE4 for the indicated time. Cell lysates were analyzed by antibodies against total AXL and phospho-AXL, with β-actin as the loading control. Left panels, immunoblots; right panel, Image J quantification of p-AXL normalized to total AXL. (C) Immunoblot analysis of phospho-AXL in response to stimulation by ANG, RNase A, and RNASE4. DU145 cells were serum-starved overnight and treated with 1 μg/ml of ANG, RNase A, or RNASE4 for 15 minutes. Left panels, immunoblots; right panel, quantification. (D) Effect of AXL inhibitor R428 on RNASE4-induced cell proliferation. Serum-starved DU145 cells were incubated with 1 or 3 μM R428 for 3 hours and then stimulated by 1 μg/ml of RNASE4 for 3 days. Cell numbers were determined by MTT assay. Data shown are means±SEM of a representative experiment (in triplicates) of 3 independent repeats. **P≤0.01 and ***P≤0.001, by unpaired two-tailed Student's t test. (E) Effect of AXL inhibitor R428 on RNASE4-induced AKT and P6 phosphorylation. Serum-starved DU145 cells were incubated with 1 or 3 μM R428 for 3 hours and then stimulated by 1 μg/ml of RNASE4 for 5 minutes. Cell lysates were analyzed for AKT and P6 phosphorylation by immunoblotting. Top panels, immunoblots; bottom panels, quantification of phospho-AKT and phospho-S6 by Image J analyses normalized to total AKT and P6, respectively. (F) Schematic presentation of proposed involvement of AXL in RNASE4-stimulated cellular events.

[3] = tested on: PC-3 cells; assay: RNASE4-induced cell proliferation (MTT assay)
Protocol: FIGS. 11A-F. RNASE4 induces PC-3 cell proliferation and phosphorylation of AKT and S6. (A) Exogenous RNASE4 (1 μg/ml) stimulates PC-3 cells proliferation in the presence of 2% FBS. Cell numbers were determined by MTT assay. (B) Time course of AKT and S6 phosphorylation of serum-starved PC-3 cells by RNASE4 (1 μg/ml). Left panels, immunoblots; right panels, quantification of p-AKT and p-S6 normalized to total AKT and S6 by Image J. (C) Effect of AKT inhibitor MK-2206, PI3K inhibitors LY294002 and Wortmannin, and mTOR inhibitor Rapamycin on RNASE4-induced PC-3 cell proliferation. Cells were pre-incubated with the inhibitors at the indicated concentrations for 1 hour prior to be stimulated by RNASE4 (1 μg/ml) for 3 days. Cell numbers were determined by MTT assay. (D) Human phospho-RTK antibody array analysis of starved PC-3 cells treated with or without 1 μg/ml RNASE4 for 5 minutes. (E) Time course of AXL phosphorylation stimulated by RNASE4 in PC-3 cells. Serum-starved PC-3 cells were treated with 1 μg/ml RNASE4 for different time. Cell lysates were analyzed for total AXL and phopho-AXL by immunoblotting. Left panels, immunoblots; right panel, quantification phospho-AXL normalized to total AXL by Image J analysis. (F) Effect of AXL inhibitor R428 on RNASE4-induced PC-3 cell proliferation. Serum-starved PC-3 cells were incubated with 1 or 3 μM R428 for 3 hours and then stimulated by 1 μg/ml of RNASE4 for 3 days. Cell numbers were determined by MTT assay. Data shown are means±SEM of a representative experiments in triplicates of 3 independent repeats. **P≤0.01 and ***P≤0.001, by unpaired two-tailed Student's t test.

[4] = tested on: AXL phosphorylation in DU145 cells; assay: AXL phosphorylation (phospho-RTK array, immunoblot); settings: serum-starved DU145, 1 μg/ml protein
Protocol: as §2
Human Phospho-RTK Arrays were purchased from R&D Systems. […] Protein concentrations were quantified by Bradford Assay and 1.5 mg cell lysate was used per array. Pixel densities on were analyzed by ImageJ. […]

[5] = serum-starved DU145, 1 or 3 μM R428 3 hours

NC1(c2ccc(-c3nc4ccn5c(=O)[nH]nc5c4cc3-c3ccccc3)cc2)CCC1 [MK-2206]
RNASE4-induced cell proliferation ([1]; serum-starved DU145, inhibitor 1 hour, then RNASE4 1 μg/ml three days): abolished
RNASE4-induced AKT phosphorylation ([2]; DU145, inhibitor 1 hour): inhibited
RNASE4-induced S6 phosphorylation ([2]; DU145, inhibitor 1 hour): inhibited
RNASE4-induced cell proliferation ([3]; PC-3, inhibitor 1 hour, then RNASE4 1 μg/ml 3 days): abolished

Nc1nc(Nc2ccc3c(c2)CCC(N2CCCC2)CC3)nn1-c1cc2c(nn1)-c1ccccc1CCC2 (stereo not shown) [R428]
RNASE4-induced cell proliferation ([1]; serum-starved DU145, 1 or 3 μM R428 3 hours, then 1 μg/ml RNASE4 3 days): inhibted
RNASE4-induced AKT phosphorylation [2, 5]: inhibted
RNASE4-induced S6 phosphorylation [2, 5]: inhibted
RNASE4-induced cell proliferation ([3]; serum-starved PC-3, 1 or 3 μM R428 3 hours, then 1 μg/ml RNASE4 3 days): inhibted

ANG: Angiogenin, another member of the pancreatic ribonuclease superfamily [reference compound]
phosphorylation of AXL [4]: do not induce

B1: RNase A: member of the pancreatic ribonuclease superfamily (protein, UniProt P61823 27-150, looked up)
Ribonuclease pancreatic: KETAAAKFERQHMDSSTSAASSSNYCNQMMKSRNLTKDRCKPVNTFVHESLADVQAVCSQKNVACKNGQTNCYQSYSTMSITDCRETGSSKYPNCAYKTTQANKHIIVACEGNPYVPVHFDASV
phosphorylation of AXL [4]: do not induce
